Measurements taken from PubChem BioAssay (NCI).
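GI50 = concentration required for 50% inhibition of growth. TGI marks complete inhibition of growth.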

How the values were obtained:
Test in all cases: NCI-60 cell line screen, 384-well format
786-0 renal = tested on: 786-0 renal
A498 renal = tested on: A498 renal
A549 NSCLC = tested on: A549 NSCLC
ACHN renal = tested on: ACHN renal
CAKI-1 renal = tested on: CAKI-1 renal
CCRF-CEM leukemia = tested on: CCRF-CEM leukemia
COLO 205 colon = tested on: COLO 205 colon
DU-145 prostate = tested on: DU-145 prostate
EKVX NSCLC = tested on: EKVX NSCLC
HCC-2998 colon = tested on: HCC-2998 colon
HCT-116 colon = tested on: HCT-116 colon
HCT-15 colon = tested on: HCT-15 colon
HL-60(TB) leukemia = tested on: HL-60(TB) leukemia
HOP-62 NSCLC = tested on: HOP-62 NSCLC
HOP-92 NSCLC = tested on: HOP-92 NSCLC
HS 578T breast = tested on: HS 578T breast
HT29 colon = tested on: HT29 colon
IGROV1 ovarian = tested on: IGROV1 ovarian
K-562 leukemia = tested on: K-562 leukemia
KM12 colon = tested on: KM12 colon
LOX IMVI melanoma = tested on: LOX IMVI melanoma
M14 melanoma = tested on: M14 melanoma
MCF7 breast = tested on: MCF7 breast
MDA-MB-231 breast = tested on: MDA-MB-231 breast
MDA-MB-435 melanoma = tested on: MDA-MB-435 melanoma
MDA-MB-468 breast = tested on: MDA-MB-468 breast
MOLT-4 leukemia = tested on: MOLT-4 leukemia
NCI-H226 lung = tested on: NCI-H226 lung
NCI-H23 lung = tested on: NCI-H23 lung
NCI-H322M lung = tested on: NCI-H322M lung
NCI-H460 NSCLC = tested on: NCI-H460 NSCLC
NCI-H522 lung = tested on: NCI-H522 lung
NCI/ADR-RES ovarian = tested on: NCI/ADR-RES ovarian
OVCAR-3 ovarian = tested on: OVCAR-3 ovarian
OVCAR-4 ovarian = tested on: OVCAR-4 ovarian
OVCAR-5 ovarian = tested on: OVCAR-5 ovarian
OVCAR-8 ovarian = tested on: OVCAR-8 ovarian
PC-3 prostate = tested on: PC-3 prostate
RPMI-8226 leukemia = tested on: RPMI-8226 leukemia
SF-268 CNS = tested on: SF-268 CNS
SF-295 CNS = tested on: SF-295 CNS
SF-539 CNS = tested on: SF-539 CNS
SK-MEL-28 melanoma = tested on: SK-MEL-28 melanoma
SK-MEL-5 melanoma = tested on: SK-MEL-5 melanoma
SK-OV-3 ovarian = tested on: SK-OV-3 ovarian
SN12C renal = tested on: SN12C renal
SNB-19 CNS = tested on: SNB-19 CNS
SNB-75 CNS = tested on: SNB-75 CNS
SW-620 colon = tested on: SW-620 colon
T-47D breast = tested on: T-47D breast
TK-10 renal = tested on: TK-10 renal
U251 glioblastoma = tested on: U251 glioblastoma
UACC-257 melanoma = tested on: UACC-257 melanoma
UACC-62 melanoma = tested on: UACC-62 melanoma
UO-31 renal = tested on: UO-31 renal

In the case of `CC1(C)CC(=O)c2c(C(F)(F)F)nn(-c3ccc(C(N)=O)c(NC4CCC(OC(=O)CN)CC4)c3)c2C1` (stereo not given), the GI50 ([…]-0 renal) is reported as 43.9 nM, the TGI (786-0 renal) is reported as 11700 nM and the GI50 (A498 renal) is reported as 67.2 nM. It also gave a TGI (A498 renal) of 15100 nM, a GI50 (A549 NSCLC) of 29 nM and a TGI (A549 NSCLC) of 11000 nM. It also gave a GI50 (ACHN renal) of 62 nM, a TGI (ACHN renal) of 18100 nM and a GI50 (CAKI-1 renal) of 67.9 nM. The TGI (CAKI-1 renal) was 19600 nM, the GI50 (CCRF-CEM leukemia) was 18.9 nM and the TGI (CCRF-CEM leukemia) was 53.3 nM. For the same compound, the GI50 (COLO 205 colon) was 13.7 nM, the TGI (COLO 205 colon) was 66.7 nM and the GI50 (DU-145 prostate) was 48.2 nM. The TGI (DU-145 prostate) was 975 nM, the GI50 (EKVX NSCLC) was 83.1 nM and the TGI (EKVX NSCLC) was 15600 nM. The GI50 (HCC-2998 colon) was 21.4 nM, the TGI (HCC-2998 colon) was 87.4 nM and the GI50 (HCT-116 colon) was 41.4 nM. For the same compound, the TGI (HCT-116 colon) was 13000 nM, the GI50 (HCT-15 colon) was 88.8 nM and the TGI (HCT-15 colon) was 14200 nM. It also gave a GI50 (HL-60(TB) leukemia) of 19.2 nM, a TGI (HL-60(TB) leukemia) of 35.4 nM and a GI50 (HOP-62 NSCLC) of 41 nM. It also gave a TGI (HOP-62 NSCLC) of 20000 nM, a GI50 (HOP-92 NSCLC) of 28.2 nM and a TGI (HOP-92 NSCLC) of 89.5 nM. For the same compound, the GI50 (HS 578T breast) was 32.1 nM, the TGI (HS 578T breast) was 222 nM and the GI50 (HT29 colon) was 24.6 nM. For the same compound, the TGI (HT29 colon) was 11500 nM, the GI50 (IGROV1 ovarian) was 18.9 nM and the TGI (IGROV1 ovarian) was 74.3 nM. It also gave a GI50 (K-562 leukemia) of 27.4 nM, a TGI (K-562 leukemia) of 10200 nM and a GI50 (KM12 colon) of 26.6 nM. For the same compound, the TGI (KM12 colon) was 827 nM, the GI50 (LOX IMVI melanoma) was 17.4 nM and the TGI (LOX IMVI melanoma) was 33.6 nM. The GI50 (M14 melanoma) was 31.4 nM, the TGI (M14 melanoma) was 12000 nM and the GI50 (MCF7 breast) was 25.4 nM. It also gave a TGI (MCF7 breast) of 843 nM, a GI50 (MDA-MB-231 breast) of 22.7 nM and a TGI (MDA-MB-231 breast) of 71.7 nM. The GI50 (MDA-MB-435 melanoma) was 67.4 nM, the TGI (MDA-MB-435 melanoma) was 38100 nM and the GI50 (MDA-MB-468 breast) was 21 nM. For the same compound, the TGI (MDA-MB-468 breast) was 47.6 nM, the GI50 (MOLT-4 leukemia) was 11.9 nM and the TGI (MOLT-4 leukemia) was 25.3 nM. The GI50 (NCI-H226 lung) was 30.3 nM, the TGI (NCI-H226 lung) was 229 nM and the GI50 (NCI-H23 lung) was 21.2 nM. It also gave a TGI (NCI-H23 lung) of 68.3 nM, a GI50 (NCI-H322M lung) of 44.2 nM and a TGI (NCI-H322M lung) of 20800 nM. For the same compound, the GI50 (NCI-H460 NSCLC) was 22.1 nM, the TGI (NCI-H460 NSCLC) was 57.3 nM and the GI50 (NCI-H522 lung) was 21.2 nM. For the same compound, the TGI (NCI-H522 lung) was 49.3 nM, the GI50 (NCI/ADR-RES ovarian) was 2350 nM and the TGI (NCI/ADR-RES ovarian) was 6770 nM. The GI50 (OVCAR-3 ovarian) was 25.3 nM, the TGI (OVCAR-3 ovarian) was 88.5 nM and the GI50 (OVCAR-4 ovarian) was 17100 nM. The TGI (OVCAR-4 ovarian) was greater than 100000 nM, the GI50 (OVCAR-5 ovarian) was 53.6 nM and the TGI (OVCAR-5 ovarian) was 30200 nM. For the same compound, the GI50 (OVCAR-8 ovarian) was 21.9 nM, the TGI (OVCAR-8 ovarian) was 48.2 nM and the GI50 (PC-3 prostate) was 33.6 nM. The TGI (PC-3 prostate) was 135 nM, the GI50 (RPMI-8226 leukemia) was 51.2 nM and the TGI (RPMI-8226 leukemia) was 241 nM. It also gave a GI50 (SF-268 CNS) of 12.2 nM, a TGI (SF-268 CNS) of 36.5 nM and a GI50 (SF-295 CNS) of 37.3 nM. The TGI (SF-295 CNS) was 140 nM, the GI50 (SF-539 CNS) was 18.6 nM and the TGI (SF-539 CNS) was 43.1 nM. For the same compound, the GI50 (SK-MEL-28 melanoma) was 46.5 nM, the TGI (SK-MEL-28 melanoma) was 19300 nM and the GI50 (SK-MEL-5 melanoma) was 39.6 nM. It also gave a TGI (SK-MEL-5 melanoma) of 14000 nM, a GI50 (SK-OV-3 ovarian) of 41.5 nM and a TGI (SK-OV-3 ovarian) of 29500 nM. It also gave a GI50 (SN12C renal) of 29.6 nM, a TGI (SN12C renal) of 98.8 nM and a GI50 (SNB-19 CNS) of 47.5 nM. The TGI (SNB-19 CNS) was 30000 nM, the GI50 (SNB-75 CNS) was 112 nM and the TGI (SNB-75 CNS) was 506 nM. For the same compound, the GI50 (SW-620 colon) was 25.8 nM, the TGI (SW-620 colon) was 79.4 nM and the GI50 (T-47D breast) was 19.5 nM. It also gave a TGI (T-47D breast) of 65 nM, a GI50 (TK-10 renal) of 51 nM and a TGI (TK-10 renal) of 5310 nM. It also gave a GI50 (U251 glioblastoma) of 30.4 nM, a TGI (U251 glioblastoma) of 95.2 nM and a GI50 (UACC-257 melanoma) of 52.8 nM. The TGI (UACC-257 melanoma) was 21200 nM, the GI50 (UACC-62 melanoma) was 29.7 nM and the TGI (UACC-62 melanoma) was 129 nM. The GI50 (UO-31 renal) was 119 nM and the TGI (UO-31 renal) was 16300 nM.
